Data as given in patent US20160263131A1, “TREATMENT OF HEPATIC FIBROSIS USING AN INHIBITOR OF CBP/CATENIN” (priority 2013, published 2016).

Experiments:
NASH mice [1] = experiment: HE staining and NAFLD Activity score in NASH mice; details: for NAFLD Activity score (NAS): mean±SD, Vehicle 5.9±1.0, tended to decrease
Experimental: NASH was induced in 40 male mice by a single subcutaneous injection of 200 μg streptozotocin (Sigma-Aldrich, USA) 2 days after birth and feeding with high fat diet (HFD, 57 kcal % fat, cat# HFD32, CLEA Japan, Japan) after 4 weeks of age. The mice were randomized into 5 groups of 8 mice at 9 weeks of age. Eight male littermates, fed with normal diet (cat# CE-2, CLEA Japan) without streptozotocin treatment, were used for the Normal group.
The test substance solution was filled in the osmotic pumps at concentrations determined based on the individual body weight at the start of treatment (day 0). Telmisartan was administered by oral route in a volume of 10 mL/kg body weight.
Telmisartan was administered once daily at a dose of 10 mg/kg body weight.
For HE staining, sections were cut from paraffin blocks of liver tissue prefixed in Bouin's solution and stained with Lillie-Mayer's Hematoxylin (Muto Pure Chemicals, Japan) and eosin solution (Wako Pure Chemical Industries).

TIMP-1 = experiment: Quantitative RT-PCR of liver, TIMP-1 mRNA, NASH mice; format: in vivo, C57BL/6J mice; details: 13 weeks of age, mean ± SD, n = 8, Vehicle 7.74 ± 4.15, no significant difference
Experimental: Total RNA was extracted from liver samples using RNAiso (Takara Bio, Japan) according to the manufacturer's instructions. One μg of RNA was reverse-transcribed using a reaction mixture containing 4.4 mM MgCl2 (Roche, Switzerland), 40 U RNase inhibitor (Toyobo, Japan), 0.5 mM dNTP (Promega, USA), 6.28 μM random hexamer (Promega), 5× first strand buffer (Promega), 10 mM dithiothreitol (Invitrogen, USA) and 200 U MMLV-RT (Invitrogen) in a final volume of 20 μL. The reaction was carried out for 1 hour at 37° C., followed by 5 minutes at 99° C. Real-time PCR was performed using real-time PCR DICE and SYBR premix Taq (Takara Bio). To calculate the relative mRNA expression level, the expression of each gene was normalized to that of reference gene 36B4 (gene symbol: Rplp0). Information of PCR-primer sets and the plate layout was described in Table 1.

NASH mice [2] = experiment: Liver hydroxyproline content in NASH mice; format: in vivo, C57BL/6J mice; details: μg per mg total protein, mean±SD, Vehicle 0.79±0.19, no significant difference
Experimental: To quantify liver hydroxyproline content, frozen liver samples (35-45 mg) were processed by an alkaline-acid hydrolysis method as follows: the livers were defatted with 100% acetone, dried in the air, dissolved in 2N NaOH at 65° C., and autoclaved at 121° C. for 20 minutes. The lysed samples (400 μL) were acid-hydrolyzed with 400 μL of 6N HCl at 121° C. for 20 minutes, and neutralized with 400 μL of 4N NaOH containing 10 mg/mL activated carbon. AC buffer (2.2M acetic acid/0.48M citric acid, 400 μL) was added to the samples, followed by centrifugation to collect the supernatant. To construct a standard curve of hydroxyproline, serial dilutions of trans-4-hydroxy-Lproline (Sigma-Aldrich) were prepared starting at 16 μg/mL. The prepared samples and standards (each 400 μL) were mixed with 400 μL chloramine T solution (Wako Pure Chemical Industries, Japan) and incubated for 25 minutes at room temperature. The samples were then mixed with Ehrlich's solution (400 μL) and heated at 65° C. for 20 minutes to develop the color. After samples were cooled on ice and centrifuged to remove precipitates, the optical density of each supernatant was measured at 560 nm. The concentrations of hydroxyproline were calculated from the hydroxyproline standard curve. Protein concentrations of liver samples were determined using a BCA protein assay kit (Thermo Fisher Scientific, USA) and used to normalize the calculated hydroxyproline values. Hydroxyproline levels were expressed as μg per mg total protein.

[3] = high dose 3 mg/kg/day s.c. infusion 9-13 wks
[4] = low dose 1 mg/kg/day s.c. infusion 9-13 wks

For C[C@H]1[C@H]2N(C(=O)CN(C)N2C(=O)NCc2ccccc2)[C@@H](Cc2ccc(OP(=O)(O)O)cc2)C(=O)N1Cc1cccc2cccnc12 [Compound A, 4-(((6S,9S,9aS)-1-(benzylcarbamoyl)-2,9-dimethyl-4,7-dioxo-8-(quinolin-8-ylmethyl)octahydro-1H-pyrazino[2,1-c][1,2,4]triazin-6-yl)methyl)phenyl dihydrogen phosphate], the “HE-stained liver sections, difference from Vehicle group” value (NASH mice [1]; [3]) was “No obvious difference”, the “NAFLD Activity score (NAS)” value (NASH mice [1]; [3]) was 5.1±0.6 and the “HE-stained liver sections: lobular inflammation” value (NASH mice [1]; low dose 1 mg/kg/day s.c. infusion 9-13 wks, compared with the Vehicle group) was “improved”. For the same compound, the “NAFLD Activity score (NAS)” value (NASH mice [1]; [4]) was 4.8±0.9, the “TIMP-1 mRNA expression level (relative, normalized to 36B4)” value (TIMP-1; high dose 3 mg/kg/day s.c. infusion 9-13 wks, 3 mg/kg/day) was 6.73±2.23 and the “TIMP-1 mRNA expression level (relative, normalized to 36B4)” value (TIMP-1; low dose 1 mg/kg/day s.c. infusion 9-13 wks, 1 mg/kg/day) was 5.35±2.82. It also gave a Liver hydroxyproline content (NASH mice [2]; [3]) of 0.95 ± 0.22 µg/mg and a Liver hydroxyproline content (NASH mice [2]; [4]) of 0.90 ± 0.26 µg/mg.
